Patent US7393872B2, “Sodium channel blocker compositions and the use thereof” (Euro-Celtique S.A., priority 1999, dated 2008)

Tests used:
[1] = test system: Chung model of neuropathic rats; experiment: Tactile allodynia in the Chung model of peripheral neuropathy; format: in vivo, rat; details: given alone, FIG. 2
Experimental: Male Sprague-Dawley rats weighing between 200-225 g were anesthetized with halothane (1-3% in a mixture of 70% air and 30% oxygen) and their body temperature controlled during anesthesia through use of a homeothermic blanket. A 2-cm dorsal midline incision was then made at the L5 and L6 level and the para-vertibral muscle groups retracted bilaterally. L5 and L6 spinal nerves were then be exposed, isolated, and tightly ligated with 6-0 silk suture. A sham operation was performed exposing the contralateral L5 and L6 spinal nerves as a negative control.
Tactile Allodynia: Rats were transferred to an elevated testing cage with a wire mesh floor and allowed to acclimate for five to ten minutes. A series of Semmes-Weinstein monofilaments were applied to the plantar surface of the hindpaw to determine the animal's withdrawal threshold. […] This procedure was repeated with subsequent lesser filaments until there was no response and the lightest filament that elicited a response was recorded. […] For each animal, three measurements were made at every time point to produce an average withdrawal threshold determination. Tests were performed prior to and at 1, 2, and 24 hrs post drug administration. Tactile allodynia and mechanical hyperalgesia tests were conducted concurrently.

chronic pain = details: clinical trials; 15-20% of patients treated with placebo showed effectiveness; cited from earlier work

| Structure (SMILES) | tactile antiallodynia effect (withdrawal threshold) ([1]; 25 mg/kg s.c.) | patient population that showed effectiveness (chronic pain) | tactile antiallodynia effect (withdrawal threshold) ([1]; 1.25 mg/kg p.o.) |
| --- | --- | --- | --- |
| NCC1(CC(=O)O)CCCCC1 [gabapentin, 1-(aminomethyl)cyclohexaneacetic acid] | minimum or no effect | less than 50% | – |
| NC(=O)NN=Cc1ccc(Oc2ccc(F)cc2)cc1 [Co 102862, 4-(4′-fluoro-phenoxy)benzaldehyde semicarbazone] | – | – | moderate antiallodynia effect |
